# Earlier results as cited in patent US20150141549A1, “ANTIBIOTIC PARTICLES AND PRODUCTION METHOD THEREOF” (Japan EnviroChemicals, Ltd., priority 2012, published 2015).
smiles,measurement,value
"CCCCNC(=O)OCC#CI [IPBC, 3-iodo-2-propynylbutylcarbamate]",water solubility,150 ppm
